The conditions of data set [1]: mouse, in vivo, po.
The test system of a further data set is newborn PL/J mice. The data set can be described thus: Primary myelination in newborn pups, GIcNAc given to pregnant/lactating mothers in drinking water. The format is in vivo, mouse. On the procedure: GIcNAc treatment of mouse pups—GIcNAc (1 mg/mL) in drinking water was provided to pregnant PLJ mothers or mothers who recently delivered pups and were nursing their young. After the treatment period, pups were anesthetized with isoflurane and cardiac perfused with PBS. Pup and fetal brains were removed and homogenized by trituration using glass pipettes in PBS with 5% Fetal Bovine Serum (FBS).
Cells were then stained with antibodies and analyzed by flow cytometry using antibodies described herein. For immunofluorescence analysis of pup brains, pups were quickly decapitated, brains harvested and fixed in 4% paraformaldehyde overnight.
For neural stem cell (NSC) immunofluorescence, whole neurospheres were seeded onto laminin-coated coverslips (Neuvitro) in proliferation medium. After 24 hours, proliferation media was removed and replaced with differentiation medium (same components as proliferation medium but excluding EGF, bFGF, and heparin) to induce differentiation. For analysis of mouse brains, brains were incubated in 30% sucrose for at least 72 hours, embedded in OCT (Tissue-tek), frozen for at least 48 hours at −80° C., and then cut at 40 microns on a cryostat. Multiple sections from −1 bregma to −2.5 bregma were then stained with antibodies for MBP (1:100; MAB386, Millipore), Olig2 (1:200; AB9610, Millipore), CC1 (1:100; OP90, Millipore), degraded MBP (1:200, AB5864, Millipore) and Amyloid Precursor Protein (APP, 1:200; clone 22C11). After overnight incubation with primary antibody, tissues were washed and incubated with secondary antibodies: goat anti-rat Alexa-fluor 488 (1:200, Thermofisher), goat anti-rabbit TxRd (1:200, Thermofisher). APP is a marker for neuro-axonal damage while co-staining for CC1 and Olig2 are markers of mature oligodendrocytes. In order to examine the amount of myelin, slices were incubated in Fluoromyelin (1:300; F34651, Thermofisher) for 45 minutes. Images were acquired on a Keyence fluorescence microscope. Mean fluorescence intensity of the medial corpus callosum was measured using ImageJ.
To assess whether oral GIcNAc promotes oligodendrogenesis in vivo in the absence of inflammation, primary myelination was examined in mice during the early perinatal period. GIcNAc or vehicle was provided to pregnant/lactating female mice from E12.5, postnatal day 3 (P3) or P5 through to P8. Indeed, oral GIcNAc increased N-glycan branching in PDGFRα^+ cells as well as the number of pre-oligodendrocytes (PDGFRα^+O4^+), immature oligodendrocytes (PDGFRα-O4^+) and mature oligodendrocytes (MBP*), with little effect on the number of OPC's ([…]) (FIG. 2B and FIG. 6A).

The nature of data set [2]: Phase 1 trial: serum HexNAc levels by LC-MS/MS. Conditions: 6 g and 12 g cohorts, after stopping oral GIcNAc. The class given is in vivo, human.
Data set [3] has as its system blasting/activated CD25+CD4+ T cells. In words: Phase 1 trial: N-glycan branching in T cells by L-PHA flow cytometry. The format is in vivo, human. Conditions: for average increase of L-PHA binding in blasting/activated CD25+CD4+ T cells: oral. On the procedure: Based on its immunomodulatory effects, a FDA approved (IND 122235) dose escalation was carried out, open-label NIH funded Phase 1 mechanistic clinical trial of oral GIcNAc in MS patients (RRMS and PMS) on glatiramer acetate and not in acute relapse, with the primary endpoint an increase in N-glycan branching in T cells. This endpoint was used as a surrogate marker for GIcNAc's biological activity. Three doses were evaluated: 1 g TID (3 g total, n=13), 2 g TID (6 g total, n=18) and 4 g TID (12 g total, n=16). Subjects had baseline blood drawn weekly four times, then started on oral GIcNAc with 4 weekly blood draws (FIG. 8A).
To assess the primary endpoint (increased N-glycan branching in T cells), flow cytometry was used to assess binding of the plant lectin L-PHA (Phaseolus vulgaris leukoagglutinin) to T cells. L-PHA is a highly sensitive and specific measure of N-glycan branching. L-PHA binding was increased in blasting/activated CD25^+CD4^+ T cells in the 12 g (p=0.0065) and 6 g (p=0.037) but not the 3 g cohort, with average increases of 7%, 3% and 1.7% respectively (FIGS. 8H and 8I); the latter indicative of a dose response.

[4] abbreviates: mothers treated from E12.5, P3 or P5 to P8, pup brains.

On to `CC(=O)N[C@H]1C(O)O[C@H](CO)[C@@H](O)[C@@H]1O` (stereo partly drawn) [GIcNAc, N-acetylglucosamine], for which, in data set [1], the “crossing of the blood brain barrier” value was “able to cross the blood brain barrier” and the “secretion in breast milk” value is reported as “secreted at sufficient levels in breast milk to raise UDP-GIcNAc in the brains of suckling pups”. In the data set with newborn PL/J mice (P3-8), the “primary myelination: staining for myelin (fluoromyelin)” value is given as “increased” and the “primary myelination: staining for myelin basic protein (MBP)” value is listed as “increased”. In the data set with newborn PL/J mice (setting [4]), the “N-glycan branching in PDGFRα+ cells” value was “increased”, the “number of OPC's (PDGFRα−O4+)” value was “little effect”, the “number of immature oligodendrocytes (PDGFRα-O4+)” value was “increased” and the “number of mature oligodendrocytes (MBP)” value is “increased”. Moreover, the “number of pre-oligodendrocytes (PDGFRα+O4+)” value with newborn PL/J mice (setting [4]) is recorded as “increased”. Besides, in data set [2], the “serum HexNAc levels during the washout period” value was “rapidly declined back to baseline”. Further, the “L-PHA binding in activated CD25+CD8+ T cells, resting CD25-CD4+ and CD25-CD8+ T cells and activated/resting CD19+ B cells” value in data set [3] (oral GIcNAc, data not shown) is “no increase”. The “average increase of L-PHA binding in blasting/activated CD25+CD4+ T cells” value in data set [3] (3 g cohort (not significant)) is listed as 1.7%. In data set [3] (6 g cohort (p=0.037)), the “average increase of L-PHA binding in blasting/activated CD25+CD4+ T cells” value came to 3%. In addition, the “average increase of L-PHA binding in blasting/activated CD25+CD4+ T cells” value in data set [3] (12 g cohort (p=0.0065)) turned out to be 7%. In addition, the “L-PHA binding to blasting/activated CD25+CD4+ T cells during the washout period vs pre-GIcNAc or during GIcNAc” value in data set [3] (post-GIcNAc, 6 g and 12 g cohorts) is reported as “no significant difference”.

The values are drawn from patent publication US20240415858A1, “PROMOTING MYELINATION BY N-ACETYLGLUCOSAMINE AND MODULATION OF N-GLYCAN BRANCHING” (THE REGENTS OF THE UNIVERSITY OF CALIFORNIA, priority 2021, published 2024).
